# Experimental data published in US20210254056A1, “IDENTIFICATION AND TARGETED MODULATION OF GENE SIGNALING NETWORKS” (CAMP4 THERAPEUTICS CORPORATION, priority 2017, published 2021).
# System: hepatocytes
# Experiment: RNA-seq of hepatocytes treated with Phase III failure compounds
# Conditions: hepatocytes
# Description: RNA-seq was performed to determine the effects of the compounds on hepatocytes.
# Significance was determined by the criteria of FPKM≥0.5, a log 2(fold-change)≥1, and a […].
smiles,measurement,setting,value
"CCC(CC)[C@H](NC(C)=O)[C@@H]1[C@H](O)[C@@H](C(=O)O)C[C@H]1NC(=N)N.O.O.O [peramivir (trihydrate), peramivir]",RNA-seq results: SLC33A1,gene SLC33A1,−0.02
same,"RNA-seq results, SLC35C1",gene SLC35C1,0.17
same,RNA-seq results: SLC35C1,gene SLC35C1,0.07
same,"RNA-seq results, SLC39A4",gene SLC39A4,0.31
same,RNA-seq results: SLC39A4,gene SLC39A4,0.32
same,"RNA-seq results, SLC40A1",gene SLC40A1,0.39
same,RNA-seq results: SLC40A1,gene SLC40A1,−0.18
same,"RNA-seq results, SLC46A1",gene SLC46A1,0.08
same,RNA-seq results: SLC46A1,gene SLC46A1,0.17
same,"RNA-seq results, SLC51A",gene SLC51A,0.08
same,RNA-seq results: SLC51A,gene SLC51A,−0.03
same,"RNA-seq results, SLC51B",gene SLC51B,0.29
same,RNA-seq results: SLC51B,gene SLC51B,0.08
same,"RNA-seq results, SLCO1B1",gene SLCO1B1,−0.33
same,RNA-seq results: SLCO1B1,gene SLCO1B1,−0.23
same,"RNA-seq results, SLCO4C1",gene SLCO4C1,−0.39
same,RNA-seq results: SLCO4C1,gene SLCO4C1,−0.05
same,"RNA-seq results, SMAD4",gene SMAD4,−0.2
same,RNA-seq results: SMAD4,gene SMAD4,−0.17
same,"RNA-seq results, SMARCB1",gene SMARCB1,0.11
same,RNA-seq results: SMARCB1,gene SMARCB1,−0.19
same,"RNA-seq results, SNX10",gene SNX10,−0.36
same,RNA-seq results: SNX10,gene SNX10,−0.57
same,"RNA-seq results, SORT1",gene SORT1,−0.15
same,RNA-seq results: SORT1,gene SORT1,−0.12
same,"RNA-seq results, SPP2",gene SPP2,−0.12
same,RNA-seq results: SPP2,gene SPP2,−0.17
same,"RNA-seq results, SPRTN",gene SPRTN,−0.17
same,RNA-seq results: SPRTN,gene SPRTN,−0.18
same,"RNA-seq results, ST3GAL5",gene ST3GAL5,−0.19
same,RNA-seq results: ST3GAL5,gene ST3GAL5,−0.11
same,"RNA-seq results, STAT1",gene STAT1,−0.31
same,RNA-seq results: STAT1,gene STAT1,−0.45
same,"RNA-seq results, STEAP3",gene STEAP3,0.03
same,RNA-seq results: STEAP3,gene STEAP3,0.03
same,"RNA-seq results, STIM1",gene STIM1,0.1
same,RNA-seq results: STIM1,gene STIM1,−0.07
same,"RNA-seq results, SULT2A1",gene SULT2A1,0.65
same,RNA-seq results: SULT2A1,gene SULT2A1,−0.07
same,"RNA-seq results, SUOX",gene SUOX,−0.18
same,RNA-seq results: SUOX,gene SUOX,−0.01
same,"RNA-seq results, TARS2",gene TARS2,0.2
same,RNA-seq results: TARS2,gene TARS2,−0.08
same,"RNA-seq results, TAT",gene TAT,−0.56
same,RNA-seq results: TAT,gene TAT,0.16
same,"RNA-seq results, TCIRG1",gene TCIRG1,0.29
same,RNA-seq results: TCIRG1,gene TCIRG1,0.39
same,"RNA-seq results, TCTN3",gene TCTN3,−0.04
same,RNA-seq results: TCTN3,gene TCTN3,−0.34
same,"RNA-seq results, TDO2",gene TDO2,−0.58
same,RNA-seq results: TDO2,gene TDO2,−0.14
same,"RNA-seq results, TF",gene TF,0.02
same,RNA-seq results: TF,gene TF,−0.09
same,"RNA-seq results, TFR2",gene TFR2,0.21
same,RNA-seq results: TFR2,gene TFR2,0.07
same,"RNA-seq results, TGFB1",gene TGFB1,−0.25
same,RNA-seq results: TGFB1,gene TGFB1,−0.16
same,"RNA-seq results, THPO",gene THPO,−0.03
same,RNA-seq results: THPO,gene THPO,0.03
same,"RNA-seq results, THRB",gene THRB,−0.28
same,RNA-seq results: THRB,gene THRB,−0.18
same,"RNA-seq results, TK2",gene TK2,0.12
same,RNA-seq results: TK2,gene TK2,0.15
same,"RNA-seq results, TMEM67",gene TMEM67,−0.01
same,RNA-seq results: TMEM67,gene TMEM67,0.04
same,"RNA-seq results, TMEM135",gene TMEM135,−0.13
same,RNA-seq results: TMEM135,gene TMEM135,−0.41
same,"RNA-seq results, TMEM165",gene TMEM165,−0.14
same,RNA-seq results: TMEM165,gene TMEM165,−0.17
same,"RNA-seq results, TMLHE",gene TMLHE,−0.03
same,RNA-seq results: TMLHE,gene TMLHE,−0.50
same,"RNA-seq results, TMPRSS6",gene TMPRSS6,0.1
same,RNA-seq results: TMPRSS6,gene TMPRSS6,0.34
same,"RNA-seq results, TNFRSF1A",gene TNFRSF1A,0.25
same,RNA-seq results: TNFRSF1A,gene TNFRSF1A,−0.13
same,"RNA-seq results, TNFSF11",gene TNFSF11,−0.54
same,RNA-seq results: TNFSF11,gene TNFSF11,−0.28
same,"RNA-seq results, TP53",gene TP53,−0.02
same,RNA-seq results: TP53,gene TP53,0.04
same,"RNA-seq results, TTC21B",gene TTC21B,−0.14
same,RNA-seq results: TTC21B,gene TTC21B,−0.28
same,"RNA-seq results, TTPA",gene TTPA,−0.46
same,RNA-seq results: TTPA,gene TTPA,−0.20
same,"RNA-seq results, TTR",gene TTR,0.19
same,RNA-seq results: TTR,gene TTR,−0.23
same,"RNA-seq results, TYMP",gene TYMP,0.37
same,RNA-seq results: TYMP,gene TYMP,0.37
same,"RNA-seq results, UBR1",gene UBR1,−0.38
same,RNA-seq results: UBR1,gene UBR1,−0.15
same,"RNA-seq results, UGT1A1",gene UGT1A1,−0.06
same,RNA-seq results: UGT1A1,gene UGT1A1,−0.38
same,"RNA-seq results, UGT2B28",gene UGT2B28,0.09
same,RNA-seq results: UGT2B28,gene UGT2B28,0.41
same,"RNA-seq results, UNC13D",gene UNC13D,0.05
same,RNA-seq results: UNC13D,gene UNC13D,0.44
same,"RNA-seq results, UPB1",gene UPB1,0.33
same,RNA-seq results: UPB1,gene UPB1,0.19
same,"RNA-seq results, UQCRB",gene UQCRB,0.17
same,RNA-seq results: UQCRB,gene UQCRB,−0.18
same,"RNA-seq results, UROC1",gene UROC1,−0.25
same,RNA-seq results: UROC1,gene UROC1,−0.26
same,"RNA-seq results, UTRN",gene UTRN,−0.35
same,RNA-seq results: UTRN,gene UTRN,−0.06
same,"RNA-seq results, VIPAS39",gene VIPAS39,0.05
same,RNA-seq results: VIPAS39,gene VIPAS39,−0.08
same,"RNA-seq results, VLDLR",gene VLDLR,0.62
same,RNA-seq results: VLDLR,gene VLDLR,−0.30
same,"RNA-seq results, VPS13A",gene VPS13A,−0.28
same,RNA-seq results: VPS13A,gene VPS13A,0.08
same,"RNA-seq results, VPS33B",gene VPS33B,0.18
same,RNA-seq results: VPS33B,gene VPS33B,0.13
same,"RNA-seq results, WAS",gene WAS,0.19
same,RNA-seq results: WAS,gene WAS,0.03
same,"RNA-seq results, WDR35",gene WDR35,−0.19
same,RNA-seq results: WDR35,gene WDR35,−0.03
same,"RNA-seq results, XDH",gene XDH,0.28
same,RNA-seq results: XDH,gene XDH,0.17
same,"RNA-seq results, YARS2",gene YARS2,0
same,"YARS2 expression, RNA-seq result",gene YARS2,−0.36
